Measured values taken from DBAASP.
In brackets after ≈: the same amount, converted by molar mass. Several values for one entry are separate records, joined by “and”; a condition that tells them apart may be missing. Equal values may be shown once. Values belong to the compound of their own block, whether it stands above or below them.

How the values were obtained:
Test in all cases: ≥ marks a high value that may be exact or a test limit, other limits are often not marked, values filed in µg/mL are converted to µM
[1] = test system: Klebsiella pneumoniae NCIMB 13218
[2] = test system: Staphylococcus aureus NCTC 8325-4
[3] = test system: Cronobacter sakazakii DSM 4485
[4] = test system: Cronobacter sakazakii ATCC BAA-894
[5] = test system: Cronobacter sakazakii DPC 6440
[6] = test system: Escherichia coli NCIMB 11843
[7] = test system: Staphylococcus aureus Newman
[8] = test system: Pseudomonas fluorescens NCIMB 9046
[9] = test system: Staphylococcus aureus RF122
[10] = test system: Cronobacter muytjensii ATCC 51329
[11] = test system: Staphylococcus aureus RN4220
[12] = test system: Staphylococcus aureus SA113
[13] = test system: Salmonella enterica subsp. enterica serovar Typhimurium LT2
[14] = test system: Bacillus subtilis 168 HT
[15] = test system: Escherichia coli MG1655
[16] = test system: Salmonella enterica subsp. enterica serovar Typhimurium ATCC 14028
[17] = test system: Escherichia coli K88
[18] = test system: Candida albicans CGMCC 2.2086
[19] = test system: Escherichia coli 078
[20] = test system: Escherichia coli UB1005
[21] = test system: Staphylococcus epidermidis ATCC 12228
[22] = test system: Lacticaseibacillus rhamnosus 7469
[23] = test system: Lactiplantibacillus plantarum 8014
[24] = test system: Staphylococcus aureus ATCC 25923
[25] = test system: Salmonella enterica subsp. enterica serovar Typhimurium C77-31
[26] = test system: Candida parapsilosis CGMCC 2.3989
[27] = test system: Escherichia coli K99
[28] = test system: Escherichia coli ATCC 25922
[29] = test system: Candida tropicalis CGMCC 2.1975
[30] = test system: Pseudomonas aeruginosa PAO1
[31] = test system: Staphylococcus aureus ATCC 29213
[32] = test system: Escherichia coli 987P
[33] = test system: Escherichia coli ML-35
[34] = test system: Bacillus megaterium Bm11
[35] = test system: Pseudomonas aeruginosa ATCC 27853
[36] = test system: Staphylococcus aureus 710A
[37] = test system: Salmonella typhimurium KCTC 1926
[38] = test system: Pseudomonas aeruginosa ATCC 15692
[39] = test system: Staphylococcus epidermidis KCTC 1917
[40] = test system: Listeria monocytogenes KCTC 19111
[41] = test system: Pseudomonas aeruginosa H547
[42] = test system: Pseudomonas aeruginosa K799
[43] = test system: Salmonella enterica subsp. enterica serovar Typhimurium ATCC 14028s
[44] = test system: Pseudomonas aeruginosa Z61
[45] = test system: Pseudomonas aeruginosa H744
[46] = test system: Pseudomonas aeruginosa H374

MIC [1]: ≥ 1250 µM
MIC [2]: ≥ 1250 µM
MIC [3]: ≥ 2500 µM
MIC [4]: ≥ 2500 µM
MIC [5]: ≥ 312 µM
MIC [6]: ≥ 1250 µM
MIC [7]: ≥ 1250 µM
MIC [8]: ≥ 1250 µM
MIC [9]: ≥ 1250 µM
MIC [10]: ≥ 2500 µM
MIC [11]: ≥ 1250 µM
MIC [12]: ≥ 1250 µM
MIC [13]: ≥ 1250 µM
Structure (SMILES): CC[C@H](C)[C@H](N)C(=O)N[C@@H](C)C(=O)N[C@@H](Cc1cnc[nH]1)C(=O)N[C@@H](CCC(N)=O)C(=O)NCC(=O)N[C@@H](CC(C)C)C(=O)N1CCC[C@H]1C(=O)N[C@@H](CCC(N)=O)C(=O)N[C@@H](CCC(=O)O)C(=O)O [IAHQGLPQE]

MIC [14]: ≥ 40.7 µM
MIC [15]: ≥ 81 µM
Structure (SMILES): CC[C@H](C)[C@H](NC(=O)[C@@H](N)CC(C)C)C(=O)N[C@H](C(=O)N[C@@H](CC(C)C)C(=O)N[C@H](C(=O)N[C@@H](CS)C(=O)N[C@@H](CCCN=C(N)N)C(=O)N[C@@H](CCCCN)C(=O)N[C@@H](CCCCN)C(=O)N[C@@H](CCCCN)C(=O)N[C@@H](CCCCN)C(=O)N1CCC[C@H]1C(=O)N[C@@H](Cc1ccccc1)C(=O)O)[C@@H](C)O)C(C)C [LIVLTCRKKKKPF]

MIC [16]: > 64 µM
MIC [17]: ≥ 64 µM
MIC [18]: 16 µM (≈ 29.5 µg/mL)
MIC [19]: ≥ 64 µM
MIC [20]: ≥ 64 µM
MIC [21]: > 64 µM
MIC [22]: ≥ 64 µM
MIC [24]: > 64 µM
MIC [25]: ≥ 64 µM
MIC [26]: 2 µM (≈ 3.68 µg/mL)
MIC [27]: ≥ 64 µM
MIC [28]: 64 µM and > 32 µM
MIC [29]: 1 µM (≈ 1.84 µg/mL)
MIC [30]: 64 µM (≈ 118 µg/mL)
MIC [31]: > 64 µM
MIC [32]: ≥ 64 µM
Structure (SMILES): CC[C@H](C)[C@H](N)C(=O)N[C@@H](Cc1cnc[nH]1)C(=O)N[C@@H](Cc1cnc[nH]1)C(=O)N[C@H](C(=O)N[C@@H](Cc1cnc[nH]1)C(=O)N[C@@H](Cc1cnc[nH]1)C(=O)N[C@@H](Cc1cnc[nH]1)C(=O)N[C@H](C(=O)N[C@@H](Cc1cnc[nH]1)C(=O)N[C@@H](Cc1cnc[nH]1)C(=O)N[C@H](C(=O)N[C@@H](Cc1cnc[nH]1)C(=O)N[C@@H](Cc1cnc[nH]1)C(=O)N[C@@H](Cc1cnc[nH]1)C(N)=O)[C@@H](C)CC)[C@@H](C)CC)[C@@H](C)CC [IHHIHHHIHHIHHH]
MIC [23]: ≥ 64 µM

MIC [14]: ≥ 82 µM
MIC [15]: ≥ 82 µM
Structure (SMILES): CC[C@H](C)[C@H](NC(=O)CNC(=O)[C@H](C)NC(=O)[C@H](Cc1cnc[nH]1)NC(=O)[C@@H](NC(=O)[C@H](CCCCN)NC(=O)[C@H](Cc1ccc(O)cc1)NC(=O)[C@@H]1CCCN1C(=O)[C@@H](NC(=O)[C@H](CC(C)C)NC(=O)[C@H](CCCCN)NC(=O)[C@H](CCCCN)NC(=O)[C@@H](N)Cc1c[nH]c2ccccc12)C(C)C)[C@@H](C)CC)C(=O)O [WKKLVPYKIHAGI]

MIC [16]: > 32 µM
MIC [33]: 4 µM (≈ 8.17 µg/mL)
MIC [34]: ≥ 32 µM
MIC [35]: 8 µM (≈ 16.3 µg/mL)
MIC [36]: ≥ 32 µM
Structure (SMILES): CC[C@H](C)[C@H](NC(=O)[C@H](CCCCN)NC(=O)[C@H](CCCCN)NC(=O)[C@H](CC(C)C)NC(=O)[C@H](CC(C)C)NC(=O)CN)C(=O)N[C@@H](C)C(=O)N[C@@H](CCCCN)C(=O)N[C@@H](CCCCN)C(=O)N[C@@H](C)C(=O)N[C@@H](CCCCN)C(=O)N[C@@H](CCCCN)C(=O)N[C@@H](C)C(=O)NCC(=O)N[C@@H](CCCCN)C(=O)N[C@@H](CCCCN)C(=O)N[C@@H](CC(C)C)C(=O)NCC(=O)N[C@@H](Cc1ccc(O)cc1)C(N)=O [GLLKKIAKKAKKAGKKLGY]

MIC [24]: 16 µM (≈ 26.3 µg/mL)
MIC [37]: 2 µM (≈ 3.28 µg/mL)
MIC [28]: 1 µM (≈ 1.64 µg/mL)
MIC [38]: 4 µM (≈ 6.57 µg/mL)
MIC [39]: 4 µM (≈ 6.57 µg/mL)
MIC [40]: 4 µM (≈ 6.57 µg/mL)
Structure (SMILES): CC(C)[C@H](NC(=O)[C@H](Cc1c[nH]c2ccccc12)NC(=O)[C@H](CCCCN)NC(=O)[C@H](CCCCN)NC(=O)[C@@H](NC(=O)[C@H](Cc1c[nH]c2ccccc12)NC(=O)[C@H](CCCCN)NC(=O)[C@H](CCCCN)NC(=O)[C@@H](NC(=O)[C@H](Cc1c[nH]c2ccccc12)NC(=O)[C@@H](N)CCCCN)C(C)C)C(C)C)C(=O)N[C@@H](CCCCN)C(N)=O [KWVKKWVKKWVK]

MIC [41]: 29.2 µM (≈ 64 µg/mL)
MIC [42]: 29.2 µM (≈ 64 µg/mL)
MIC [20]: 29.2 µM (≈ 64 µg/mL)
MIC [43]: 29.2 µM (≈ 64 µg/mL)
MIC [44]: 29.2 µM (≈ 64 µg/mL)
MIC [45]: 29.2 µM (≈ 64 µg/mL)
MIC [46]: 29.2 µM (≈ 64 µg/mL)
Structure (SMILES): CC(C)[C@H](NC(=O)[C@H](CO)NC(=O)[C@H](CC(N)=O)NC(=O)[C@H](CC(=O)O)NC(=O)[C@H](Cc1ccccc1)NC(=O)[C@H](CO)NC(=O)CNC(=O)[C@@H](NC(=O)[C@H](CCC(N)=O)NC(=O)[C@H](CCCCN)NC(=O)[C@H](Cc1ccccc1)NC(=O)[C@H](Cc1ccccc1)NC(=O)[C@H](CO)NC(=O)[C@H](CCCCN)NC(=O)[C@H](CCCN=C(N)N)NC(=O)[C@H](Cc1c[nH]c2ccccc12)NC(=O)[C@H](CCCCN)NC(=O)[C@@H](N)CCCCN)C(C)C)C(=O)O [KKWRKSFFKQVGSFDNSV]

MIC [16]: 2 µM (≈ 4.17 µg/mL)
MIC [33]: 0.5 µM (≈ 1.04 µg/mL)
MIC [34]: 2 µM (≈ 4.17 µg/mL)
MIC [35]: 0.5 µM (≈ 1.04 µg/mL)
MIC [36]: 2 µM (≈ 4.17 µg/mL)
Structure (SMILES): CC[C@H](C)[C@H](NC(=O)[C@H](CCCCN)NC(=O)[C@H](CCCCN)NC(=O)[C@H](CC(C)C)NC(=O)[C@H](CC(C)C)NC(=O)CN)C(=O)NCC(=O)N[C@@H](CCCCN)C(=O)N[C@@H](CCCCN)C(=O)N[C@@H](C)C(=O)N[C@@H](CCCCN)C(=O)N[C@@H](CCCCN)C(=O)N[C@@H](C)C(=O)N[C@@H](CC(C)C)C(=O)N[C@@H](CCCCN)C(=O)N[C@@H](CCCCN)C(=O)N[C@@H](CC(C)C)C(=O)NCC(=O)N[C@@H](Cc1ccc(O)cc1)C(N)=O [GLLKKIGKKAKKALKKLGY]
